Test results as given in the NIST ThermoML archive (doi:10.1016/j.jct.2005.04.010).
± gives the expanded uncertainty stated by the source.

Assay: activity coefficient (dimensionless); of the first substance listed, at infinite dilution; xn = mol fraction of the nth substance listed
Details: Liquid, x1 = 0

Row | SMILES | activity coefficient (303.15 K, Chromatography) | activity coefficient (303.15 K, dilutor) | activity coefficient (313.15 K, Chromatography) | activity coefficient (313.15 K, dilutor) | activity coefficient (323.15 K, Chromatography) | activity coefficient (323.15 K, dilutor) | activity coefficient (333.15 K, Chromatography) | activity coefficient (333.15 K, dilutor)
1 | C=CCCCCC [1-heptene] + CCCCCCCCn1cc[n+](C)c1.O=S(=O)([N-]S(=O)(=O)C(F)(F)F)C(F)(F)F | 4.29 ± 0.2 | 4.33 ± 0.22 | 4.23 ± 0.19 | 4.26 ± 0.21 | 4.13 ± 0.19 | 4.2 ± 0.21 | 4.13 ± 0.19 | 4.15 ± 0.21
2 | CC(C)O [propan-2-ol] + CCCC[N+]1(C)CCCC1.O=S(=O)([N-]S(=O)(=O)C(F)(F)F)C(F)(F)F |  | 2.11 ± 0.11 |  | 1.92 ± 0.1 |  | 1.77 ± 0.09 |  | 1.63 ± 0.08
3 | CC(C)O [propan-2-ol] + CCCCCC[n+]1ccn(C)c1.O=S(=O)([N-]S(=O)(=O)C(F)(F)F)C(F)(F)F | 1.71 ± 0.07 | 1.72 ± 0.09 |  |  | 1.44 ± 0.05 | 1.37 ± 0.07 | 1.33 ± 0.05 | 1.23 ± 0.06
4 | CCOC(C)(C)C [2-ethoxy-2-methylpropane] + CCCCCC[n+]1ccn(C)c1.O=S(=O)([N-]S(=O)(=O)C(F)(F)F)C(F)(F)F | 2.69 ± 0.12 |  | 2.74 ± 0.12 |  | 2.76 ± 0.13 |  | 2.82 ± 0.13 | 
5 | CCC(C)=O [butanone] + CCCC[N+]1(C)CCCC1.O=S(=O)([N-]S(=O)(=O)C(F)(F)F)C(F)(F)F |  | 0.52 ± 0.03 |  | 0.53 ± 0.03 |  | 0.55 ± 0.03 |  | 0.56 ± 0.03
6 | Cc1ccccc1 [toluene] + CCCCCCCCn1cc[n+](C)c1.O=S(=O)([N-]S(=O)(=O)C(F)(F)F)C(F)(F)F | 0.82 ± 0.03 |  | 0.83 ± 0.03 |  | 0.85 ± 0.03 |  | 0.85 ± 0.03 | 
7 | C1CCCC1 [cyclopentane] + CCCC[N+]1(C)CCCC1.O=S(=O)([N-]S(=O)(=O)C(F)(F)F)C(F)(F)F |  | 6.14 ± 0.31 |  | 5.7 ± 0.29 |  | 5.41 ± 0.27 |  | 5.12 ± 0.26
8 | C1=CCCC1 [cyclopentene] + CCCCCCCCn1cc[n+](C)c1.O=S(=O)([N-]S(=O)(=O)C(F)(F)F)C(F)(F)F |  | 1.86 ± 0.09 |  | 1.84 ± 0.09 |  | 1.81 ± 0.09 |  | 1.78 ± 0.09
9 | c1ccccc1 [benzene] + CCCCCC[n+]1ccn(C)c1.O=S(=O)([N-]S(=O)(=O)C(F)(F)F)C(F)(F)F | 0.75 ± 0.03 |  | 0.76 ± 0.03 |  | 0.78 ± 0.03 |  | 0.79 ± 0.03 | 
10 | C1CCCC1 [cyclopentane] + CCCCCCCCn1cc[n+](C)c1.O=S(=O)([N-]S(=O)(=O)C(F)(F)F)C(F)(F)F |  | 2.68 ± 0.13 |  | 2.64 ± 0.13 |  | 2.59 ± 0.13 |  | 2.56 ± 0.13
11 | C1CCOC1 [tetrahydrofuran] + CCCCCC[n+]1ccn(C)c1.O=S(=O)([N-]S(=O)(=O)C(F)(F)F)C(F)(F)F | 0.49 ± 0.03 |  | 0.51 ± 0.03 |  | 0.53 ± 0.03 |  | 0.55 ± 0.03 | 
12 | CCCO [propan-1-ol] + CCCCCCCCn1cc[n+](C)c1.O=S(=O)([N-]S(=O)(=O)C(F)(F)F)C(F)(F)F | 1.67 ± 0.07 |  | 1.51 ± 0.06 |  | 1.35 ± 0.05 |  | 1.24 ± 0.04 | 
13 | C=CCCCCCC [oct-1-ene] + CCCCCC[n+]1ccn(C)c1.O=S(=O)([N-]S(=O)(=O)C(F)(F)F)C(F)(F)F | 8.81 ± 0.4 | 8.28 ± 0.41 | 8.47 ± 0.39 | 8.08 ± 0.4 | 8.18 ± 0.38 | 7.92 ± 0.4 | 7.9 ± 0.36 | 7.77 ± 0.39
14 | C1=CCCCC1 [cyclohexene] + CCCCCCCCn1cc[n+](C)c1.O=S(=O)([N-]S(=O)(=O)C(F)(F)F)C(F)(F)F | 2.41 ± 0.11 | 2.44 ± 0.12 | 2.38 ± 0.11 | 2.38 ± 0.12 | 2.31 ± 0.1 | 2.33 ± 0.12 | 2.29 ± 0.1 | 2.28 ± 0.11
15 | CCCCCCCC [octane] + CCCCCCCCn1cc[n+](C)c1.O=S(=O)([N-]S(=O)(=O)C(F)(F)F)C(F)(F)F | 8.92 ± 0.41 |  | 8.43 ± 0.39 |  | 8.14 ± 0.37 |  | 7.82 ± 0.36 | 
16 | C1CCCCC1 [cyclohexane] + CCCCCCCCn1cc[n+](C)c1.O=S(=O)([N-]S(=O)(=O)C(F)(F)F)C(F)(F)F | 3.64 ± 0.17 | 3.67 ± 0.18 | 3.52 ± 0.16 | 3.59 ± 0.18 | 3.36 ± 0.15 | 3.48 ± 0.17 | 3.29 ± 0.15 | 3.39 ± 0.17
17 | CCCCCC [hexane] + CCCCCCCCn1cc[n+](C)c1.O=S(=O)([N-]S(=O)(=O)C(F)(F)F)C(F)(F)F | 5.32 ± 0.24 | 5.44 ± 0.27 | 5.13 ± 0.23 | 5.26 ± 0.26 | 4.92 ± 0.22 | 5.13 ± 0.26 | 4.8 ± 0.22 | 4.97 ± 0.25
18 | C=CCCC [1-pentene] + CCCCCCCCn1cc[n+](C)c1.O=S(=O)([N-]S(=O)(=O)C(F)(F)F)C(F)(F)F | 2.52 ± 0.11 | 2.54 ± 0.13 | 2.53 ± 0.11 | 2.53 ± 0.13 | 2.46 ± 0.11 | 2.53 ± 0.13 | 2.45 ± 0.11 | 2.52 ± 0.13
19 | CCO [ethanol] + CCCC[N+]1(C)CCCC1.O=S(=O)([N-]S(=O)(=O)C(F)(F)F)C(F)(F)F |  | 1.84 ± 0.09 |  | 1.73 ± 0.09 |  | 1.63 ± 0.08 |  | 1.5 ± 0.08
20 | Cc1ccccc1 [toluene] + CCCCCC[n+]1ccn(C)c1.O=S(=O)([N-]S(=O)(=O)C(F)(F)F)C(F)(F)F | 1.01 ± 0.03 |  | 1.03 ± 0.03 |  | 1.05 ± 0.03 |  | 1.08 ± 0.03 | 
21 | CCCCCCC [heptane] + CCCCCCCCn1cc[n+](C)c1.O=S(=O)([N-]S(=O)(=O)C(F)(F)F)C(F)(F)F | 6.82 ± 0.31 | 7.01 ± 0.35 | 6.55 ± 0.3 | 6.81 ± 0.34 | 6.38 ± 0.29 | 6.57 ± 0.33 | 6.21 ± 0.28 | 6.4 ± 0.32
22 | CCCCCCCC [octane] + CCCCCC[n+]1ccn(C)c1.O=S(=O)([N-]S(=O)(=O)C(F)(F)F)C(F)(F)F | 15.2 ± 0.7 | 14.4 ± 0.7 | 14.3 ± 0.7 | 14.1 ± 0.7 | 13.5 ± 0.6 | 13.1 ± 0.7 | 13 ± 0.6 | 12.8 ± 0.6
23 | Cc1cccc(C)c1 [1,3-dimethylbenzene] + CCCCCC[n+]1ccn(C)c1.O=S(=O)([N-]S(=O)(=O)C(F)(F)F)C(F)(F)F | 1.4 ± 0.05 |  | 1.41 ± 0.05 |  | 1.46 ± 0.06 |  | 1.5 ± 0.06 | 
24 | CO [methanol] + CCCCCCCCn1cc[n+](C)c1.O=S(=O)([N-]S(=O)(=O)C(F)(F)F)C(F)(F)F | 1.23 ± 0.04 |  | 1.14 ± 0.03 |  | 1.03 ± 0.03 |  | 0.96 ± 0.03 | 
25 | CC(C)OC(C)C [diisopropyl ether] + CCCCCC[n+]1ccn(C)c1.O=S(=O)([N-]S(=O)(=O)C(F)(F)F)C(F)(F)F | 2.76 ± 0.13 |  | 2.82 ± 0.13 |  | 2.85 ± 0.13 |  | 2.92 ± 0.13 | 
